Results: patent publication US11053250B2, “Pyrrolo[1,2-b]pyridazine derivatives” (Gilead Sciences, Inc., priority 2018, dated 2021)

Columns and labels:
TNFα = assay: IRAK4 Monocyte TNFα Cell Based Assay; conditions: cryopreserved human monocytes, LPS 50 pg/ml stimulation, TNFα by TR-FRET
Procedure, shortened: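 Cells (5,000/well) preincubated with compound 1 h at 37° C (0.1% DMSO), then stimulated 4 h with 50 pg/ml LPS. Supernatant TNFα quantified by TR-FRET (665/615 nm ratio). Percent of control scaled between unstimulated (0%) and LPS-stimulated (100%) wells.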

IRAK4 enzyme = IRAK4 enzyme (Homo sapiens (Human), UniProt Q9NWZ3); assay: IRAK4 Biochemical Assay (TR-FRET/HTRF); conditions: 0.75 nM IRAK4, 500 μM ATP, STK1 peptide
Procedure, shortened: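 Compound was preincubated 15 min with 0.75 nM IRAK4 and 2 µM STK1 peptide. Reaction ran 120 min at room temperature with 500 µM ATP in HEPES pH 7.0 buffer (5 mM MgCl2, 1 mM DTT), then HTRF detection of phosphopeptide as the 665/615 nm ratio. % inhibition is relative to no-inhibitor and saturating-staurosporine controls.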

Sequence of IRAK4 enzyme (Q9NWZ3 whole entry): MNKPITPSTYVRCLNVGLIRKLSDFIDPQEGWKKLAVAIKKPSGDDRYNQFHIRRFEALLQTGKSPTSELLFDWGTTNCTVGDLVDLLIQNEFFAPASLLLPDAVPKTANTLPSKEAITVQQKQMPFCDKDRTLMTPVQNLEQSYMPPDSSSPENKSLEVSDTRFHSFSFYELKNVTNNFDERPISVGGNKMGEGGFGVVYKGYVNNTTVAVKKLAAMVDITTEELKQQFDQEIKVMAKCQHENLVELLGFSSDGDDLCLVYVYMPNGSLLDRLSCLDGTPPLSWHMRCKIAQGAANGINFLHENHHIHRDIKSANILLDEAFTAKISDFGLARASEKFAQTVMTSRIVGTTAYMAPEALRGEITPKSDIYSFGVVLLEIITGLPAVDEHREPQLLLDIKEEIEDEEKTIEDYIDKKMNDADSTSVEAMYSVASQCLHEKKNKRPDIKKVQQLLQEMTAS

Row | Compound | EC50 (TNFα; Monocyte) [nM] | IC50 (IRAK4 enzyme) [nM] | EC50 (TNFα) [nM]
1 | 7-(4-(isopropylamino)-5-(1-propyl-1H-1,2,3-triazol-4-yl)pyridin-2-yl)pyrrolo[1,2-b]pyridazine-3-carbonitrile [Compound 54] | – | 1 | 90
2 | COC(=O)NCC1CC(Nc2cc(-c3ccc4cc(C#N)cnn34)ncc2-c2cn(C3CC(O)C3)nn2)C1 [Compound 7, methyl (((1R,3r)-3-((2-(3-cyanopyrrolo[1,2-b]pyridazin-7-yl)-5-(1-((1r,3R)-3-hydroxycyclobutyl)-1H-1,2,3-triazol-4-yl)pyridin-4-yl)amino)cyclobutyl)methyl)carbamate] | – | < 1 | 12
3 | COC(=O)NCC1CC(Nc2cc(-c3ccc4cc(C#N)cnn34)ncc2-c2cn(C3CCC(NC(=O)OC(C)(C)C)CC3)nn2)C1 [Compound 22, methyl (((1R,3r)-3-((5-(1-((1r,4R)-4-((tert-butoxycarbonyl)amino)cyclohexyl)-1H-1,2,3-triazol-4-yl)-2-(3-cyanopyrrolo[1,2-b]pyridazin-7-yl)pyridin-4-yl)amino)cyclobutyl)methyl)carbamate] | – | 1 | 187
4 | COC(=O)NC[C@H]1C[C@H](Nc2cc(-c3ccc4cc(C#N)cnn34)ncc2-c2cn(CC(=O)N3CC(F)(F)C3)nn2)C1 [Compound 14, methyl (((1r,3r)-3-((2-(3-cyanopyrrolo[1,2-b]pyridazin-7-yl)-5-(1-(2-(3,3-difluoroazetidin-1-yl)-2-oxoethyl)-1H-1,2,3-triazol-4-yl)pyridin-4-yl)amino)cyclobutyl)methyl)carbamate] | – | < 1 | 18
5 | COC(=O)NCC1CC(Nc2cc(-c3ccc4cc(C#N)cnn34)ncc2-c2cn(C3CC(CO)C3)nn2)C1 [Compound 9, methyl (((1R,3r)-3-((2-(3-cyanopyrrolo[1,2-b]pyridazin-7-yl)-5-(1-((1r,3R)-3-(hydroxymethyl)cyclobutyl)-1H-1,2,3-triazol-4-yl)pyridin-4-yl)amino)cyclobutyl)methyl)carbamate] | – | < 1 | 16
6 | COC(=O)NC[C@H]1C[C@H](Nc2cc(-c3ccc4cc(C#N)cnn34)ncc2-c2nnn(C[C@@H](F)C(C)(C)O)c2F)C1 [Compound 5, methyl (((1R,3r)-3-((2-(3-cyanopyrrolo[1,2-b]pyridazin-7-yl)-5-(5-fluoro-1-((R)-2-fluoro-3-hydroxy-3-methylbutyl)-1H-1,2,3-triazol-4-yl)pyridin-4-yl)amino)cyclobutyl)methyl)carbamate] | – | 3 | 145
7 | CC(C)(O)[C@H](F)Cn1cc(-c2cnc(-c3ccc4cc(C#N)cnn34)cc2N[C@H]2CCC[C@@H](O)C2)nn1 [Compound 13, 7-(5-(1-((R)-2-fluoro-3-hydroxy-3-methylbutyl)-1H-1,2,3-triazol-4-yl)-4-(((1S,3R)-3-hydroxycyclohexyl)amino)pyridin-2-yl)pyrrolo[1,2-b]pyridazine-3-carbonitrile] | 5 | < 1 | –
8 | COC(=O)NC[C@H]1C[C@H](Nc2cc(-c3ccc4cc(C#N)cnn34)ncc2-c2cn([C@H]3CC[C@H](NC(=O)C4CC4)CC3)nn2)C1 [Compound 19, methyl (((1R,3r)-3-((2-(3-cyanopyrrolo[1,2-b]pyridazin-7-yl)-5-(1-((1r,4R)-4-(cyclopropanecarboxamido)cyclohexyl)-1H-1,2,3-triazol-4-yl)pyridin-4-yl)amino)cyclobutyl)methyl)carbamate] | – | < 1 | 9

Results, then the compound that gave them:

Row | EC50 (TNFα; Monocyte) [nM] | IC50 (IRAK4 enzyme) [nM] | EC50 (TNFα) [nM] | Compound
9 | 94 | 3 | – | CNc1cc(-c2ccc3cc(C#N)cnn23)ncc1-c1cn(CC(F)(F)C(C)(C)O)nn1 [Compound 28, 7-(5-(1-(2,2-difluoro-3-hydroxy-3-methylbutyl)-1H-1,2,3-triazol-4-yl)-4-(methylamino)pyridin-2-yl)pyrrolo[1,2-b]pyridazine-3-carbonitrile]
10 | 6 | < 1 | – | CC(C)(O)[C@H](F)Cn1cc(-c2cnc(-c3ccc4cc(C#N)cnn34)cc2NC23CCC(N4CCOCC4)(CC2)CC3)nn1 [Compound 34, (R)-7-(5-(1-(2-fluoro-3-hydroxy-3-methylbutyl)-1H-1,2,3-triazol-4-yl)-4-((4-morpholinobicyclo[2.2.2]octan-1-yl)amino)pyridin-2-yl)pyrrolo[1,2-b]pyridazine-3-carbonitrile]
11 | – | 2 | 75 | CC(=O)N[C@H]1CC[C@H](c2cn(-c3cnc(-c4ccc5cc(C#N)cnn45)cc3NC(C)C)nn2)CC1 [Compound 61, N-((1r,4r)-4-(1-(6-(3-cyanopyrrolo[1,2-b]pyridazin-7-yl)-4-(isopropylamino)pyridin-3-yl)-1H-1,2,3-triazol-4-yl)cyclohexyl)acetamide]
12 | 28 | < 1 | – | CNc1cc(-c2ccc3cc(C#N)cnn23)ncc1-c1cn(C[C@@H](F)C(C)(C)O)nn1 [Compound 37, (R)-7-(5-(1-(2-fluoro-3-hydroxy-3-methylbutyl)-1H-1,2,3-triazol-4-yl)-4-(methylamino)pyridin-2-yl)pyrrolo[1,2-b]pyridazine-3-carbonitrile]
13 | – | < 1 | 77 | COC(=O)NC[C@H]1C[C@H](Nc2cc(-c3ccc4cc(C#N)cnn34)ncc2-c2cn(CC(F)(F)F)nn2)C1 [Compound 29, methyl (((1r,3r)-3-((2-(3-cyanopyrrolo[1,2-b]pyridazin-7-yl)-5-(1-(2,2,2-trifluoroethyl)-1H-1,2,3-triazol-4-yl)pyridin-4-yl)amino)cyclobutyl)methyl)carbamate]
14 | – | 2 | 121 | CC(C)Nc1cc(-c2ccc3cc(C#N)cnn23)ncc1-n1cc([C@H]2CC[C@H](NC(=O)OC(C)(C)C)CC2)nn1 [Compound 64, tert-butyl ((1r,4r)-4-(1-(6-(3-cyanopyrrolo[1,2-b]pyridazin-7-yl)-4-(isopropylamino)pyridin-3-yl)-1H-1,2,3-triazol-4-yl)cyclohexyl)carbamate]
